This is an account of results in PubChem BioAssay AID624254 (Broad Institute, 2012).

Active and inactive are the calls of the source. The rule behind the calls is not given here.

The nature of this test: Luciferase light induction in v cholerae bh1651, agonist dose response, confirmatory (AID 624254). To be noted: V. cholerae BH1651 luxOD47E, luciferase light induction, 6 h; at 50 µM (top of the series).
Regarding `Cn1cnnc1SCCOc1ccc(Cl)cc1`, the “activation (light increase)” value was “inactive”.

As for `COc1cc(NC(=O)Cc2cccs2)ccc1-n1cnnn1`, the “activation (light increase)” value was “inactive”.

Consider `CC1(NC(=O)C23CC4CC(CC(C4)C2)C3)CCS(=O)(=O)C1` (stereo unspecified), for which the “activation (light increase)” value is “inactive”.

As to `Cn1cccc1C(=O)OCc1cc(-c2ccco2)on1`, the “activation (light increase)” value was “inactive”.

`COCCNc1nc2c(c(=O)n(Cc3ccc(OC)cc3)c(=O)n2C)n1C`: the “activation (light increase)” value is “inactive”.

As for `COc1ccc2nc(SC(C)C(=O)NCC(=O)Nc3ccc(F)c(F)c3F)[nH]c2c1` (stereo unspecified), the “activation (light increase)” value is “inactive”.

In the case of `COc1c(C)cccc1C(=O)Nc1ccc(OCC(=O)N2CCOCC2)cc1C`, the “activation (light increase)” value is “inactive”.

Turning to `Cc1ccc(S(=O)(=O)N(C)C[C@H]2Oc3c(NC(=O)Nc4ccc5c(c4)OCO5)cccc3C(=O)N([C@H](C)CO)C[C@@H]2C)cc1`, the “activation (light increase)” value is “inactive”.

On to `COc1ccc(S(=O)(=O)N2CCCCC2)cc1NC(=O)c1ccc(OC)c(OC)c1`, for which the “activation (light increase)” value was “inactive”.

On to `O=C(NCc1ccccc1)C1CCCN(S(=O)(=O)c2cccnc2)C1` (stereo unspecified), for which the “activation (light increase)” value was “inactive”.

`CC(=O)c1ccc(NC(=O)COc2ccccc2C(=O)Nc2ccccc2)cc1`: the “activation (light increase)” value was “inactive”.

For `CCCn1nnnc1NCc1ccc(OC)cc1OC`, the “activation (light increase)” value was “inactive”.

With `Cc1ccc(S(=O)(=O)N2Cc3ccccc3CC2C(=O)Nc2ccc3c(c2)OCO3)cc1` (stereo unspecified), the “activation (light increase)” value is “inactive”.

Consider `O=C(COC(=O)CNC(=O)c1ccco1)NCCN1C(=O)CSC1=O`, for which the “activation (light increase)” value is “inactive”.

Consider `CCN(CC(=O)Nc1ccccc1C(F)(F)F)C(=O)CN1C(=O)NC(C)(c2ccc3ccccc3c2)C1=O` (stereo unspecified), for which the “activation (light increase)” value is “inactive”.

In the case of `Cn1cnc(S(=O)(=O)Nc2ccc(OC(C)(C)C)cc2)c1`, the “activation (light increase)” value was “inactive”.

For the compound `C[C@H](CO)N1C[C@H](C)[C@@H](CN(C)S(=O)(=O)c2ccc(Cl)cc2)Oc2c(NC(=O)Nc3ccc4c(c3)OCO4)cccc2C1=O`, the “activation (light increase)” value was “inactive”.

As for `Cc1noc(C)c1COc1ccc(C(=O)NCC(c2c(F)cccc2Cl)N(C)C)cc1` (stereo unspecified), the “activation (light increase)” value is “inactive”.

Consider `CCOc1ccc(/C(O)=C2/C(=O)C(=O)N(CCOCCO)C2c2ccccn2)cc1` (stereo unspecified), for which the “activation (light increase)” value was “inactive”.

For `O=C(NCCN1CCOCC1)c1cccc(NS(=O)(=O)c2ccc(Br)cc2)c1`, the “activation (light increase)” value is “inactive”.

Consider `Cc1ccc(C2(C)NC(=O)N(CC(=O)NCCC3=CCCCC3)C2=O)cc1` (stereo unspecified), for which the “activation (light increase)” value is “inactive”.

For the compound `C[C@@H]1CN([C@@H](C)CO)C(=O)c2cccc(NC(=O)Nc3ccc4c(c3)OCO4)c2O[C@@H]1CN(C)S(=O)(=O)c1ccccc1`, the “activation (light increase)” value is “inactive”.

Consider `O=C(CCNC(=O)c1ccc(Cl)cc1)NCC(c1ccco1)N1CCCCC1` (stereo unspecified), for which the “activation (light increase)” value was “inactive”.

With `CC(C)c1ccc(C(=O)OCC(=O)NC2CCCC2)cc1`, the “activation (light increase)” value is “inactive”.

`CC(=O)C(CC(=O)N1CCCc2ccccc21)C(=O)Nc1ccc(F)cc1` (stereo unspecified): the “activation (light increase)” value is “inactive”.

On to `COc1ccc(OC)c(NC(=O)Nc2cccc(Cn3cccn3)c2)c1`, for which the “activation (light increase)” value is “inactive”.

On to `COc1ccc2c(c1)CCC(C)N2S(=O)(=O)c1ccc(C2CNC(=O)C2)cc1` (stereo unspecified), for which the “activation (light increase)” value is “inactive”.

For `O=C(COC(=O)/C=C/c1ccc(OC(F)F)cc1)NC1CCCCCC1`, the “activation (light increase)” value was “inactive”.

Regarding `CCC(=O)c1ccc(N2CCCCCC2)c(F)c1`, the “activation (light increase)” value is “inactive”.

As for `COc1ccccc1CNC(=O)COC(=O)c1n[nH]c2ccccc12`, the “activation (light increase)” value was “inactive”.

Regarding `CCOc1ccc(Nc2nc3c(c(=O)[nH]2)CCCC3)cc1`, the “activation (light increase)” value is “inactive”.

As for `CCCn1nnnc1NCc1ccc(C(C)C)cc1`, the “activation (light increase)” value was “inactive”.

Consider `Cc1ccccc1-n1ccnc1SCC(=O)NCC1CCCO1` (stereo unspecified), for which the “activation (light increase)” value was “inactive”.

As to `CCc1ccc2c(c1)c1nnc(NN)nc1n2CC`, the “activation (light increase)” value is “inactive”.

Take `O=C(COC(=O)c1ccc(Cl)nc1)Nc1ccc2ccccc2c1`: the “activation (light increase)” value was “inactive”.

On to `Cc1[nH]c2ccc3c(ncn3CCC#N)c2c1C`, for which the “activation (light increase)” value was “inactive”.

As to `Cc1ccc(S(=O)(=O)NCCC(=O)OCC(=O)N(Cc2ccccc2)C(C)(C)C)cc1C`, the “activation (light increase)” value is “inactive”.

Consider `CC1CN(C(=O)COC(=O)c2cccc(NS(=O)(=O)c3ccccc3)c2)CC(C)O1` (stereo unspecified), for which the “activation (light increase)” value was “inactive”.

As for `CCOC(=O)CSc1nc(C)cc(C)c1C#N`, the “activation (light increase)” value was “inactive”.

Consider `CC(=O)Nc1nonc1NC(C)=O`, for which the “activation (light increase)” value is “inactive”.

With `Cc1ccc(S(=O)(=O)N(C)c2ccc(OCC(=O)N3CCCCC3)cc2)cc1`, the “activation (light increase)” value is “inactive”.

`CCn1nnnc1SCC(=O)c1ccc2c(c1)OCCO2`: the “activation (light increase)” value is “inactive”.

On to `CCOc1ccc(S(=O)(=O)N(CCO)CCO)cc1-c1nc2c(C(C)(C)C)nn(C)c2c(=O)[nH]1`, for which the “activation (light increase)” value is “inactive”.

For the compound `CCCOc1ccc(NS(=O)(=O)c2cn(C)cn2)cc1`, the “activation (light increase)” value is “inactive”.

As to `CCCCNC(=O)CN(c1cccc(Br)c1)S(C)(=O)=O`, the “activation (light increase)” value was “inactive”.

For `CCCOC(=O)c1ccc(NC(=O)CCC(=O)OCC)cc1`, the “activation (light increase)” value is “inactive”.

As for `CC(=O)Nc1ccc(NC(=O)c2ccccc2C)cc1`, the “activation (light increase)” value was “inactive”.

In the case of `CCn1c(SCC(=O)Nc2ccc3c(c2)OCCO3)nnc1-c1ccccn1`, the “activation (light increase)” value was “inactive”.

Turning to `Cc1ccc(C)c(C(=O)CN2C(=O)NC3(CCCCCC3)C2=O)c1`, the “activation (light increase)” value is “inactive”.

On to `CCCCOC(=O)n1c(=O)oc2ccccc21`, for which the “activation (light increase)” value is “inactive”.

In the case of `CCCn1nnnc1NCc1ccc(SC)cc1`, the “activation (light increase)” value is “inactive”.

As for `CCOC(=O)C1CCCN(Cc2cccc(Cl)c2)C1` (stereo unspecified), the “activation (light increase)” value is “inactive”.

In the case of `COCCn1nnnc1CN1CCC(NC(=O)Nc2cccc(OC)c2)CC1`, the “activation (light increase)” value was “inactive”.

As to `COc1ccc(NC(=O)CSc2ccc3c(c2)OCCO3)cc1OC`, the “activation (light increase)” value is “inactive”.

As to `Cn1c(=O)c2c(nc(SCCN3CCOCC3)n2Cc2cccc3ccccc23)n(C)c1=O`, the “activation (light increase)” value was “inactive”.

As to `CC(C)[C@H](NC(=O)c1ccccc1F)C(=O)OCC(=O)NC1CC1`, the “activation (light increase)” value is “inactive”.

With `Cc1ccc(C(=O)OCC(=O)NCCNC(=O)COC(=O)c2ccc(C)s2)s1`, the “activation (light increase)” value was “inactive”.

Turning to `O=C(Nc1cccc(Cl)c1)Nc1ccc(Cl)cn1`, the “activation (light increase)” value was “inactive”.

As to `Cc1noc(C)c1NC(=O)Nc1cccc2c1O[C@@H](CN(C)S(=O)(=O)c1cccs1)[C@@H](C)CN([C@@H](C)CO)C2=O`, the “activation (light increase)” value is “inactive”.

For `Cc1cccc(NC(=O)c2ccc(Oc3ccccc3)cc2)n1`, the “activation (light increase)” value is “inactive”.

For the compound `CC(C)(C)c1ccc(C(=O)OCC(=O)NC2CC2)cc1`, the “activation (light increase)” value is “inactive”.

Take `COC(=O)[C@H]1C[C@H](C(=O)O)[C@@H](C)C1(C)C`: the “activation (light increase)” value was “inactive”.

For `O=S(=O)(Nc1ccc(-c2ccc3nncn3n2)cc1)c1ccc(Cl)s1`, the “activation (light increase)” value was “inactive”.

As to `Cc1cccc(NC(=O)CS(=O)(=O)c2cn(C)c3ccccc23)c1C`, the “activation (light increase)” value was “inactive”.

On to `Cc1noc(C)c1NC(=O)Nc1cccc2c1O[C@@H](CN(C)S(=O)(=O)c1cccs1)[C@@H](C)CN([C@H](C)CO)C2=O`, for which the “activation (light increase)” value was “inactive”.

For `CCC1(CC)NC(=O)N(CC(=O)OCC(=O)NC(=O)c2ccccc2OC)C1=O`, the “activation (light increase)” value is “inactive”.

Turning to `O=C(CN1CCC(O)(c2cccc(C(F)(F)F)c2)CC1)NCCc1ccccc1`, the “activation (light increase)” value was “inactive”.

For the compound `CCCS(=O)(=O)N1CCCC(C(=O)NCCCN(C)Cc2ccccc2)C1` (stereo unspecified), the “activation (light increase)” value was “inactive”.

In the case of `Cc1ccc(Oc2nccc(-c3ccc(Cl)cc3)n2)cc1`, the “activation (light increase)” value is “inactive”.

With `CCc1ccc(C(=O)Nc2ccc(Br)cn2)cc1`, the “activation (light increase)” value was “inactive”.

For `Cc1ccc(OCCC(=O)OCC(=O)Nc2ccc3c(c2)OCO3)cc1`, the “activation (light increase)” value is “inactive”.

Regarding `O=C(NCCS(=O)(=O)N1CCN(c2ccccc2)CC1)c1ccco1`, the “activation (light increase)” value is “inactive”.

On to `CCCCN(C)CCNC(=O)c1ccc2c(c1)NC(=O)C(N1CCCCC1)S2` (stereo unspecified), for which the “activation (light increase)” value is “inactive”.

Turning to `Cn1cnc(S(=O)(=O)Nc2ccc(Cl)cc2)c1`, the “activation (light increase)” value was “inactive”.

`COc1cc(C(C)=O)ccc1OCC(=O)Nc1cc(Cl)ccc1-n1cncn1`: the “activation (light increase)” value is “inactive”.

On to `Fc1ccc(NCc2cn3ccccc3n2)cc1`, for which the “activation (light increase)” value is “inactive”.

Regarding `CCCCOCC(O)CN1CCN(C(C)=O)CC1` (stereo unspecified), the “activation (light increase)” value was “inactive”.

With `Cn1cnc(S(=O)(=O)Nc2ccc(-c3ccccc3)cc2)c1`, the “activation (light increase)” value was “inactive”.

As for `CCCn1nnnc1NCc1ccc(OC)cc1`, the “activation (light increase)” value is “inactive”.

Take `O=C(Nc1nnc(C2CC2)s1)c1cccc(S(=O)(=O)N2CCc3ccccc32)c1`: the “activation (light increase)” value is “inactive”.

`COc1ccc(-n2c(COc3ccccc3)nnc2SCc2ccc(C#N)cc2)cc1`: the “activation (light increase)” value is “inactive”.

For `Cc1ccc(Oc2ccc(S(=O)(=O)N3CCOCC3)cc2C(N)=O)c(-n2nc3ccccc3n2)c1`, the “activation (light increase)” value is “inactive”.

Take `O=C1C(=O)N(Cc2ccco2)C(c2cccc(Cl)c2)/C1=C(\O)c1ccc2c(c1)OCCO2` (stereo unspecified): the “activation (light increase)” value was “inactive”.

As for `Nc1nnc(-c2ccc(Cl)cc2Cl)s1`, the “activation (light increase)” value was “inactive”.

In the case of `COc1ccc(C(=O)NC2CCSC2=O)cc1` (stereo unspecified), the “activation (light increase)” value was “inactive”.

For the compound `CN(CC(=O)NCCN1CCOCC1)S(=O)(=O)c1ccc(Cl)cc1`, the “activation (light increase)” value is “inactive”.
